{"source": "patent US12697366B2", "about": "“Thermogenic compositions and methods” (Ohio State Innovation Foundation, priority 2016, dated 2026)", "molecules": {"B1": {"name": "EFNA5: recombinant ephrin-A5 ligand protein (protein)", "chain": "QDPGSKVVADRYAVYWNSSNPRFQRGDYHIDVCINDYLDVFCPHYEDSVPEDKTERYVLYMVNFDGYSACDHTSKGFKRWECNRPHSPNGPLKFSEKFQLFTPFSLGFEFRPGREYFYISSAIPDNGRRSCLKLKVFVRPTNSCMKTIGVHDRVFDVNDKVENSLEPADDTVHESAEPSRGEN"}}, "key": {"NCI-460": {"system": "NCI-460", "test": "MTT cytotoxicity on NCI-460 (H460)", "format": "cell-based", "settings": "Homo sapiens", "experimental": "(§1) The non-oxidized CPT-CCKK nanotube was assessed for cytotoxic efficacy against human non-small cell lung cancer (NSCLC) cell lines A549, NCI-460, and NCI-H23, which were selected according to the indications of approved CPT derivative Topotecan. […] The explanation for the cytotoxicity results could be that CPT-CCKK release active CPT in a time-dependent manner, and the entire true concentration for CPT in the cell medium is less than that of free CPT. […] It has been reported before that the GSH level in H460 was almost twice higher than that in A549. Therefore, higher concentration of GSH in H460 accelerated the breakage of the disulfide bonds within the crosslinked CPT-CCKK nanotubes, leading to faster release of active CPT and higher in vitro cytoxicity."}, "NCI-H23": {"system": "NCI-H23", "test": "MTT cytotoxicity on NCI-H23", "format": "cell-based, human", "experimental": "as §1"}, "A549": {"system": "A549", "test": "MTT cytotoxicity on A549", "format": "cell-based", "settings": "Homo sapiens", "experimental": "as §1"}, "[1]": {"system": "HT-29 colorectal cancer cells", "test": "Viability / cytotoxicity assay on HT-29 colorectal cancer cells", "format": "cell-based, human", "settings": "in vitro"}, "3T3-L1 cells": {"system": "3T3-L1 cells", "test": "LDH release cytotoxicity (CytoTox 96) in 3T3-L1 cells", "format": "cell-based, mouse", "settings": "different concentrations, 6 hours", "experimental": "Non-differentiated, 90% confluent 3T3-L1 cells were incubated with different concentrations of nanoscaffolds #1, #2, or #3 for 6 hours. Cytotoxicity was measured the lactate dehydrogenase (LDH), released upon cell lysis using The CytoTox 96 assay (Promega, Cat #G1780)."}, "DRG neurons": {"system": "DRG neurons", "test": "Neurite outgrowth of DRG neurons (ArrayScan XTI, Neuronal Profiling algorithm)", "format": "cell-based, mouse", "settings": "recombinant EFNA5 30 ng/mL, 24 hours", "experimental": "Single cell suspensions from cervical, thoracic, and lumbar DRG neurons were isolated from terminally anesthetized C57BL/6 adult female mice (12-16 weeks old, The Jackson Laboratory). Dissected DRGs were enzymatically digested in a solution of collagenase type 2 (200 U/mL; Sigma, St. Louis, MO) and dispase I (5 U/mL; Sigma) on a shaker for 45 min at 37° C. (Davies et al., 1999). Enzyme solution was aspirated and cells were washed twice in Hank's Balanced Salt Solution 1× (HBSS; Mediatech Inc., Manassas, VA) before incubating in DNase I type II (5 mg/mL; Worthington Biochemical, Lakewood, NJ) for 5 min at room temperature. […] The neuron-enriched pellet was resuspended in DRG culture medium (DMEM/F12, 1% N2 supplement, and 0.05% Gentamicin) and live cells were counted on a hemocytometer using trypan blue exclusion. […] Cells were automatically imaged using a Thermo Scientific™ ArrayScan™ XTI Live High Content microscope and analyzed with the Neuronal Profiling algorithm (ThermoFisher) (Lerch et al., 2014). Total neurite length, average neurite length, number of branch points, critical value, dendrite maximum, and ramification index were averaged across all neurons detected per well, with 3 wells included per treatment. […] Dendrite maximum and critical value are parameters determined based on Scholl analysis, and are automatically generated by the software. […]"}, "[2]": {"system": "Brainbow (BB) mice fed a high-fat (HF) diet", "test": "Study 5: recombinant EFNA5 injected into iAb fat of Brainbow mice fed a HF diet", "format": "in vivo, mouse", "experimental": "Brainbow (BB) B6.Cg-Tg(Thy1-Brainbow1.0)HLich/J mice were purchased from The Jackson Laboratory (n=7, females). 5-week old BB mice were fed a HF for 140 days. Then mice were randomly assigned into groups injected with PBS (n=3) and recombinant EFNA5 (n=4). Mice were individually housed for all treatment periods. Mice were injected into both iAb fat depots with 100 μL PBS/iAb depot or with PBS containing recombinant EFNA5 (Life Technologies, 45 ng/mL) every other day for 1 month. Metabolic measurements were performed. WAT were collected for protein, mRNA, and histology.\nMetabolic parameters were measured by indirect calorimetry (CLAMS, Columbus Instruments, Columbus, OH) at ambient temperature (22° C.) with 12 h light/dark cycles. Animals were fed the same HF diet and water was provided ad libitum. Mice were placed individually and allowed to acclimatize in the chambers for 12 h. Oxygen consumption, CO2 production, energy expenditure, and locomotor activity were measured for at least 24 h. […] For cold exposure the temperature was changed to 4° C. for 6 h.\nCell/tissue protein lysates normalized by protein content (BCA, ThermoFisher). Medium was collected from cells plated at similar numbers. Protein lysate or medium were separated on 10% acrylamide gel under reducing conditions. After transfer to a polyvinylidene fluoride membrane (Immobilon-P; Millipore), proteins were analyzed using an Odyssey Infrared Imaging System (LI-COR Biosciences). Peripherin and tyrosine hydroxylase polyclonal rabbit antibodies (Abcam, Cambridge, MA) were used at 1:1000 dilution."}, "3T3-L1 adipocytes": {"system": "3T3-L1 adipocytes", "test": "Thermogenic gene expression in 3T3-L1 adipocytes (TaqMan / RT-PCR)", "format": "cell-based, mouse", "settings": "recombinant EFNA5 10 ng/mL, 4 days", "experimental": "FIGS. 9A to 9D show DRG neurons (500 neurons per well) cultured in DRG culture medium only, or DRG culture medium with NT-3 (1 ng/mL), with NGF (10 ng/mL), with WT secretome (1/1, v/v), or with Aldh1a1^−/− secretome (1/1, v/v) for 24 hours. WT and Aldh1a1^−/− adipocytes differentiated for 5 days. Secretome is the media collected from these cells for 24 h. Neurite outgrowth parameters were assayed using the Thermo Scientific™ ArrayScan™ XTI Live High Content microscope and analyzed with the Neuronal Profiling Algorithm (ThermoFisher). Nine independent experiments were performed using DRG from three mice. Each DRG batch was analyzed in triplicate. Data are shown as mean±SD obtained with one DRG batch. Asterisks indicate P<0.05 between different groups; Mann-Whitney U test. FIG. 9A: Representative images show ~25% of area used for the automatic quantification of neuronal parameters in FIG. 3 per one condition. […] FIG. 9B: Secreted EFNA5 levels in the medium from 3T3-L1 preadipocytes and adipocytes differentiated for 4d were analyzed by ELISA. FIG. 9C: Basal metabolic rate (heat) was measured in PBS- and EFNA5-injected mice from Table 1, Study 4 by an open circuit indirect calorimetry treadmill. […] Expression was measured by RT-PCR and normalized by 18S.\nFIGS. 11A to 11I show adipokine Ereg is bilaterally associated with obesity and thermogenesis and activates PPARα. […] FIG. 11B: Ereg expression was measured in non-differentiated and differentiated (day 5) 3T3-L1 adipocytes (Mann-Whitney test) using a customized NanoString mouse panel. FIG. 11C: Ereg expression was measured in differentiated (day 5) 3T3-L1 and Aldh1a1^−/− adipocytes by Taqman and normalized to TATA box protein (TBP). FIG. 11D: Plasma EREG concentrations were measured in mice from Study 1 by western blot. […] FIG. 11E: Plasma EREG concentrations were measured and quantified in iAb of WT and ob/ob mice from Study 2 by western blot (n=5 per each group). […] FIG. 11F: EREG was measured in iAb, subcutaneous and brown fat by western blot. […] Expression level were measured by Taqman and normalized by TBP. […]"}, "[3]": {"settings": "Study 5, BB mice, HF diet, EA5 vs PBS"}}, "note": "Non-standard residues stand in square brackets, D forms with d. Residues, ends and D or L forms follow the SMILES beside them. ξ: configuration not given here. *: point of attachment. Succinyl(20-O-(20S)-CPT) = CC[C@@]1(OC(=O)CCC(=O)*)C(=O)OCc2c1cc1n(c2=O)Cc2cc3ccccc3nc2-1; Fmoc = O=C(OCC1c2ccccc2-c2ccccc21)*; ξK = NCCCCC(N)C(=O)O; Bz = O=C(c1ccccc1)*; ξC = NC(CS)C(=O)O"}
{"molecule": "CC[C@@]1(O)C(=O)OCc2c1cc1n(c2=O)Cc2cc3ccccc3nc2-1", "note": "[CPT, Camptothecin]", "values": [{"measurement": "IC50", "setting": "NCI-460; NCI-460, 96 h MTT, experiment with non-oxidized nanotube (FIG. 36A)", "value": 270, "unit": "nM"}, {"measurement": "IC50", "setting": "NCI-460; H460, experiment with crosslinked nanotubes (FIG. 36B)", "value": 350, "unit": "nM"}, {"measurement": "IC50", "setting": "NCI-H23; Homo sapiens, NCI-H23, 96 h MTT, experiment with non-oxidized nanotube (FIG. 36A)", "value": 190, "unit": "nM"}, {"measurement": "IC50", "setting": "A549; 96 h MTT, experiment with non-oxidized nanotube (FIG. 36A)", "value": 200, "unit": "nM"}, {"measurement": "IC50", "setting": "A549; experiment with crosslinked nanotubes (FIG. 36B)", "value": "~830", "unit": "nM"}]}
{"molecule": "CC[C@@]1(OC(=O)CCC(=O)NC(CS)C(=O)NC(CS)C(=O)NC(CCCCN)C(=O)NC(CCCCN)C(N)=O)C(=O)OCc2c1cc1n(c2=O)Cc2cc3ccccc3nc2-1", "note": "(stereo partly drawn) [CPT-CCKK] ({Succinyl(20-O-(20S)-CPT)}-[ξC][ξC][ξK][ξK]-NH2)", "values": [{"measurement": "less cytotoxic than parental drug CPT", "setting": "NCI-H23; H23 cell lines", "value": "roughly 3 folds"}]}
{"molecule": "NCCCC[C@H](NC(=O)OCC1c2ccccc2-c2ccccc21)C(=O)N[C@@H](Cc1ccccc1)C(=O)N[C@@H](CCCCN)C(=O)N[C@@H](CCCCNC(=O)c1ccccc1)C(N)=O", "note": "[Fmoc-KFKK(Bz)-NH2] (Fmoc-KFKK(Bz)-NH2)", "values": [{"measurement": "cytotoxic efficacy against human colorectal cell line", "setting": "[1]", "value": "no efficacy"}]}
{"molecule": "CCN(CC)c1ccc2cc(C(=O)NCCCC[C@H](NC(=O)[C@H](CCCCN)NC(=O)OCC3c4ccccc4-c4ccccc43)C(N)=O)c(=O)oc2c1", "note": "[nanoscaffold #2, Fmoc-KK(DAC)]", "values": [{"measurement": "cytotoxicity (LDH release)", "setting": "3T3-L1 cells", "value": "not toxic"}]}
{"molecule": "Fmoc-KK(SucBz) [nanoscaffold #1]", "values": [{"measurement": "cytotoxicity (LDH release)", "setting": "3T3-L1 cells", "value": "not toxic"}]}
{"molecule": "B1", "values": [{"measurement": "dendritic maximum and critical value in neurons", "setting": "DRG neurons", "value": "increased"}, {"measurement": "metabolic rate on cold exposure", "setting": "[2]; EFNA5- vs. PBS-injected mice, 4° C.", "value": "increased"}, {"measurement": "tyrosine hydroxylase protein levels in WAT", "setting": "[2]; EFNA5 vs. PBS, after 2 weeks of treatment, Western blot", "value": "increased"}, {"measurement": "Body Wt.", "setting": "[2]; [3]", "value": "28.7 ± 3.2", "unit": "g"}, {"measurement": "Brown Fat", "setting": "[2]; [3]", "value": "0.1 ± 0.03", "unit": "g"}, {"measurement": "Sub Fat", "setting": "[2]; [3]", "value": "1.0 ± 0.4", "unit": "g"}, {"measurement": "iAb Fat", "setting": "[2]; [3]", "value": "1.2 ± 0.5", "unit": "g"}, {"measurement": "regulation of expression of thermogenic genes (Ucp1)", "setting": "3T3-L1 adipocytes", "value": "no direct effect"}]}
